Source: patent US6956030B2, “Use of mometasone furoate for treating upper airway diseases” (Schering Corporation, priority 1994, dated 2005)
Marks after values point to notes of the source that are not given here.

Legend:
[1] = Drug metabolism/clinical pharmacology study: absorption and excretion of total radioactivity after ^3H-MF by various routes; format: in vivo, normal healthy male volunteers; settings: for AUC (1) of total radioactivity, dose normalized / Cmax of total radioactivity, dose normalized: based on dose normalized data; for percent of dose as tritiated water in the body: estimated from urinary distillation experiments
Description: In addition, a single-dose absorption, excretion and metabolism study using 200 mcg of ^3H-mometasone furoate as the nasal spray formulation was conducted in 6 normal male volunteers. When systemic absorption (based on urinary excretion) was compared to an intravenously administered dose of ^3H-mometasone furoate, it was 8%.
A drug metabolism and clinical pharmacology study was conducted by administering (by various routes) tritium-labeled mometasone furoate (“^3H-MF”) to 6 groups of 6 normal male volunteers in each group. Blood and urine samples were collected for measurement of total drug (including metabolites).
The objectives of these studies in male volunteers were to determine the absorption, metabolism and excretion of ^3H-labeled mometasone furoate (“^3H-MF”) following administration by oral swallow as a solution and as an aqueous suspension of the monohydrate, by oral inhalation as a suspension from a standard metered dose inhaler (MDI) and from a metered dose inhaler containing a spacer device (Gentlehaler), by nasal inhalation as an aqueous suspension of the mometasone furoate monohydrate from a nasal spray unit and by intravenous injection as a solution.
Thirty-six (n=6 per treatment group) normal healthy male volunteers between the ages of 19 and 40 yr. (average 29 yr.) having weights in accordance with current actuarial tables (+10%) were enrolled in these single dose studies. All subjects were determined to be in good health by their medical history, physical examinations, clinical and laboratory tests.
(§1) Plasma, urine, expired air filters, Respirgard and fecal samples were collected and assayed for radioactivity content. The limit of quantitation (LOQ) for plasma radioactivity ranged from 0.103 to 0.138 ng eq/ml., except for the nasal spray treatment where the LOQ was 0.025 ng eq/ml. Selected plasma, urine and fecal samples were analyzed for metabolite profiles.
Pharmacokinetics—The mean (n=6) plasma concentrations of total radioactivity are illustrated in Summary FIG. 1 and the mean (n=6) pharmacokinetic parameters derived from total plasma radioactivity are presented in Table 2.

[2] = HPLC/radio-flow metabolite profiling of plasma, urine and fecal extracts after ^3H-MF; format: in vivo, normal healthy male volunteers
From the text: The substantial minimization of the systemic effect of mometasone furoate administered intranasally or by oral inhalation has been measured by High Performance Liquid Chromatography (HPLC) metabolite profiling of plasma radioactivity of mometasone furoate, its substantially complete (>98%) first-pass metabolism in the liver and by a minimal reduction in cortisol secretion levels.
as §1
Selected plasma, urine and fecal extracts were analyzed by high performance liquid chromatography (HPLC) with radio-flow monitoring to determine metabolite profiles. […] Approximately 1.5% of the 3 hr. plasma radioactivity was associated with parent drug indicating extensive first past metabolism and rapid inactivation by the liver. In contrast, following intravenous administration, approximately 39% of the 3 hr. plasma radioactivity was associated with parent drug. Approximately 12% and 33% of the 3 hr. plasma radioactivity was associated with parent drug following administration of the MDI and Gentlehaler, respectively. In general, the plasma concentrations of radioactivity following the nasal and oral suspension routes of administration were too low for metabolite profiling.
Hydrolysis of plasma and urine was performed with an enzyme preparation containing both β-glucuronidase and aryl sulfatase. These experiments yielded modest changes in the HPLC metabolite profiles that were consistent with the hydrolytic release of conjugated metabolites.

[3] = test system: plasma cortisol; test: Phase I rising single-dose safety and tolerance study, metered dose inhaler, 24-hour plasma cortisol; format: in vivo, healthy male volunteers
Description: Several Phase I studies were conducted using mometasone furoate formulated for delivery as a suspension in a pressurized metered dose inhaler (MDI). In a randomized, third-party blinded, placebo-controlled rising single-dose safety and tolerance study, aerosolized mometasone furoate was administered by a metered dose inhaler to eight healthy male volunteers. Doses were administered at 11 p.m. and plasma cortisol concentrations were measured during the following 24-hour period.

[4] = of the inhalation dose; cited from earlier work
[5] = cited from earlier work; for efficacy in treating asthma in clinical trials: clinical trials / Phase II; for systemic side effects: in vivo

## C[C@@H]1C[C@H]2[C@@H]3CCC4=CC(=O)C=C[C@]4(C)[C@@]3(Cl)[C@@H](O)C[C@]2(C)[C@@]1(OC(=O)c1ccco1)C(=O)CCl [^3H-MF]
[1]; Gentlehaler
  % Absorbed (AUC): radioactivity absorbed, dose normalized versus intravenous data: 69* %
  % Absorbed (Urine): radioactivity absorbed, urinary excretion compared to the intravenous dose: 67%
  Feces (% dose): administered radioactivity excreted in feces through 168 hr: 89%
  U + F (% dose): total dose recovered in urine and feces through 168 hr: 105%
  Urine (% dose): administered radioactivity excreted in the urine through 168 hr: ~16%
  absorption of drug-derived radioactivity (dose normalized AUC and urinary excretion data): 67-69%
  AUC (1) of total radioactivity, dose normalized: 275 ng eq hr/ml
  Cmax of total radioactivity, dose normalized: 1.71 ng eq/ml
[1]; Gentlehaler 0.40 mg
  AUC (1) of total radioactivity to infinity: 110 ng eq hr/ml
[1]; MDI
  % Absorbed (AUC): radioactivity absorbed, dose normalized versus intravenous data: 23* %
  % Absorbed (Urine): radioactivity absorbed, urinary excretion compared to the intravenous dose: 30%
  Feces (% dose): administered radioactivity excreted in feces through 168 hr: 86%
  U + F (% dose): total dose recovered in urine and feces through 168 hr: 94%
  Urine (% dose): administered radioactivity excreted in the urine through 168 hr: ~7%
  absorption of drug-derived radioactivity (dose normalized AUC and urinary excretion data): 23-30%
  AUC (1) of total radioactivity, dose normalized: 94 ng eq hr/ml
  Cmax of total radioactivity, dose normalized: 0.93 ng eq/ml
[1]; MDI 0.86 mg
  AUC (1) of total radioactivity to infinity: 81 ng eq hr/ml
[1]; human, in vivo
  tritium label exchanged with body water: less than 4%
[1]; intravenous
  Feces (% dose): administered radioactivity excreted in feces through 168 hr: 54%
  U + F (% dose): total dose recovered in urine and feces through 168 hr: 78%
  percent of dose as tritiated water in the body: approximately 3.7%
[1]; intravenous solution 1.03 mg
  AUC (1) of total radioactivity to infinity: 401 ng eq hr/ml
[1]; intravenous solution 1.03 mg, mean n=6
  Cmax (C5min) of total radioactivity: 23.7 ng eq/ml
[1]; nasal spray
  Feces (% dose): administered radioactivity excreted in feces through 168 hr: 78%
  U + F (% dose): total dose recovered in urine and feces through 168 hr: 80%
[1]; nasal spray 0.19 mg
  AUC (1) of total radioactivity to infinity: BQL
[1]; nasal spray 0.19 mg, LOQ 0.025 ng eq/ml
  Cmax of total radioactivity: BQL**
[1]; nasal spray 0.19 mg, LOQ 0.025 ng eq/ml, listed as 3H-mometasone furoate
  Cmax of total radioactivity: below the limit of quantification
[1]; nasal spray, listed as 3H-mometasone furoate
  % Absorbed (Urine): radioactivity absorbed, urinary excretion compared to the intravenous dose: 8%
[1]; oral solution
  % Absorbed (AUC): radioactivity absorbed, dose normalized versus intravenous data: 122%
  % Absorbed (Urine): radioactivity absorbed, urinary excretion compared to the intravenous dose: 104%
  Feces (% dose): administered radioactivity excreted in feces through 168 hr: 62%
  U + F (% dose): total dose recovered in urine and feces through 168 hr: 87%
  percent of dose as tritiated water in the body: ~2.9%
[1]; oral solution 1.03 mg
  AUC (1) of total radioactivity to infinity: 488 ng eq hr/ml
[1]; oral solution 1.03 mg, mean n=6
  Cmax of total radioactivity: 4.8 ng eq/ml
[1]; oral suspension
  Feces (% dose): administered radioactivity excreted in feces through 168 hr: 73%
  U + F (% dose): total dose recovered in urine and feces through 168 hr: 75%
[1]; oral suspension 0.99 mg
  AUC (1) of total radioactivity to infinity: BQL
[1]; oral suspension 0.99 mg, LOQ 0.103 to 0.138 ng eq/ml
  Cmax of total radioactivity: BQL
[1]; regardless of dosage form and route of administration
  route of excretion of radioactivity: predominantly excreted in the feces
[2]; Gentlehaler
  3 hr. plasma radioactivity associated with parent drug: ~33%
  urine metabolite profile: all of the radioactivity was associated with metabolites more polar than parent drug
[2]; MDI
  3 hr. plasma radioactivity associated with parent drug: Approximately 12%
[2]; intravenous
  3 hr. plasma radioactivity associated with parent drug: approximately 39%
[2]; intravenous and oral solution
  urinary and fecal extract metabolite profile: all of the radioactivity was associated with metabolites more polar than parent drug
[2]; nasal spray, oral suspension, MDI and Gentlehaler
  fecal extract metabolite profile: presence primarily of mometasone furoate
[2]; oral solution
  3 hr. plasma radioactivity associated with parent drug: Approximately 1.5%
  plasma metabolite profile: most of the plasma radioactivity was associated with metabolites more polar than the available standards

## CCC(=O)OCC(=O)[C@@]1(OC(=O)CC)[C@@H](C)C[C@H]2[C@@H]3CCC4=CC(=O)C=C[C@]4(C)[C@@]3(Cl)[C@@H](O)C[C@@]21C [beclomethasone dipropionate]
[3]; single dose 1000 mcg by MDI at 11 p.m.
  reduction of 24-hour area under the curve plasma cortisol profile (AUC 0-24) compared to placebo: 30%
[3]; single dose 2000 mcg by MDI at 11 p.m.
  reduction of 24-hour area under the curve plasma cortisol profile (AUC 0-24) compared to placebo: 38%
[3]; single dose 4000 mcg by MDI at 11 p.m.
  reduction of 24-hour area under the curve plasma cortisol profile (AUC 0-24) compared to placebo: 65%

## CCCC1O[C@@H]2C[C@H]3[C@@H]4CCC5=CC(=O)C=C[C@]5(C)[C@H]4[C@@H](O)C[C@]3(C)[C@]2(C(=O)CO)O1 (stereo partly shown) [budesonide]
[4]
  systemic bioavailability after oral ingestion: greater than 10%

## CCCC(=O)O[C@]1(C(=O)CSC(=O)CC)CC[C@H]2[C@@H]3CCC4=CC(=O)CC[C@]4(C)[C@H]3[C@@H](O)C[C@@]21C [butixocort propionate]
[5]
  efficacy in treating asthma in clinical trials: some efficacy
  systemic side effects: low systemic side-effects

## CCS[C@]1(SC)CC[C@H]2[C@@H]3CCC4=CC(=O)C=C[C@]4(C)[C@@]3(F)[C@@H](O)C[C@@]21C [tipredane]
[5]
  efficacy in treating asthma in clinical trials: have not demonstrated a level of efficacy in treating asthma which would be considered therapeutically useful
  systemic side effects: low systemic side effects
